# pEC50: −log10 of the molar value.
# Target: FXR (Homo sapiens (Human), UniProt Q96RI1)
# Test: FXR EC50 (FXR agonist potency reported with each Example)
# Type: cell-based
# FXR, sequence (Q96RI1 262-486): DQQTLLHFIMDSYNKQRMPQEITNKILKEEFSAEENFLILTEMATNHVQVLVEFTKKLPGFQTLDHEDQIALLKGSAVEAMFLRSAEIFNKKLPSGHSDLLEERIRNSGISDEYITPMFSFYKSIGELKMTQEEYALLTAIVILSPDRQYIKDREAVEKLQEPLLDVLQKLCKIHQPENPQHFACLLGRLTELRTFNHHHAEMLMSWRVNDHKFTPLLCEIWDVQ
row,SMILES,pEC50
1,"COc1ccc(C23CCC(CN(C(=O)C4CC(F)(F)C4)c4cccc(-c5nc(C6CC6)no5)c4)(CC2)CO3)cc1 [Example 129, N-(3-(3-Cyclopropyl-1,2,4-oxadiazol-5-yl)phenyl)-3,3-difluoro-N-((1-(4-methoxyphenyl)-2-oxabicyclo[2.2.2]octan-4-yl)methyl)cyclobutane-1-carboxamide]",5.94
2,"Cn1cc(-c2cccc(N(CC34CCC(c5nc(C6CC6)no5)(CC3)CC4)C(=O)C34CC(F)(C3)C4)c2)nc1C1CC1 [Example 130, N-((4-(3-cyclopropyl-1,2,4-oxadiazol-5-yl)bicyclo[2.2.2]octan-1-yl)methyl)-N-(3-(2-cyclopropyl-1-methyl-1H-imidazol-4-yl)phenyl)-3-fluorobicyclo[1.1.1]pentane-1-carboxamide]",6.23
3,"Cn1cc(-c2cccc(N(CC34CCC(c5nc(C6CC6)no5)(CC3)CC4)C(=O)C3CC(F)(F)C3)c2)nc1C1CC1 [Example 131, N-((4-(3-cyclopropyl-1,2,4-oxadiazol-5-yl)bicyclo[2.2.2]octan-1-yl)methyl)-N-(3-(2-cyclopropyl-1-methyl-1H-imidazol-4-yl)phenyl)-3,3-difluorocyclobutane-1-carboxamide]",5.84
4,"Cn1c(-c2cccc(N(CC34CCC(c5nc(C6CC6)no5)(CC3)CC4)C(=O)C34CC(F)(C3)C4)c2)nnc1C1CC1 [Example 132, N-((4-(3-cyclopropyl-1,2,4-oxadiazol-5-yl)bicyclo[2.2.2]octan-1-yl)methyl)-N-(3-(5-cyclopropyl-4-methyl-4H-1,2,4-triazol-3-yl)phenyl)-3-fluorobicyclo[1.1.1]pentane-1-carboxamide]",5.36
5,"O=C(C1CC(C(F)F)C1)N(CC12CCC(c3nnc(C4CC4)o3)(CC1)CC2)c1cccc(-c2nnc(C3CC3)o2)c1 (stereo not drawn) [Example 134, N-((4-(5-cyclopropyl-1,3,4-oxadiazol-2-yl)bicyclo[2.2.2]octan-1-yl)methyl)-N-(3-(5-cyclopropyl-1,3,4-oxadiazol-2-yl)phenyl)-3-(difluoromethyl)cyclobutane-1-carboxamide]",6.20
6,"O=C(C1CC(F)(F)C1)N(CC12CCC(c3nnc(C4CC4)o3)(CC1)CC2)c1cccc(-c2nnc(C3CC3)o2)c1 [Example 135, N-((4-(5-cyclopropyl-1,3,4-oxadiazol-2-yl)bicyclo[2.2.2]octan-1-yl)methyl)-N-(3-(5-cyclopropyl-1,3,4-oxadiazol-2-yl)phenyl)-3,3-difluorocyclobutane-1-carboxamide]",5.96
7,"O=C(N(CC12CCC(c3nnc(C4CC4)o3)(CC1)CC2)c1cccc(-c2nnc(C3CC3)o2)c1)C12CC(F)(C1)C2 [Example 136, N-((4-(5-cyclopropyl-1,3,4-oxadiazol-2-yl)bicyclo[2.2.2]octan-1-yl)methyl)-N-(3-(5-cyclopropyl-1,3,4-oxadiazol-2-yl)phenyl)-3-fluorobicyclo[1.1.1]pentane-1-carboxamide]",6.85
8,"O=C(N(CC12CCC(c3nnc(C4CC4)o3)(CC1)CC2)c1cccc(-c2nc(C3CC3)no2)c1)C12CC(F)(C1)C2 [Example 137, N-(3-(3-cyclopropyl-1,2,4-oxadiazol-5-yl)phenyl)-N-((4-(5-cyclopropyl-1,3,4-oxadiazol-2-yl)bicyclo[2.2.2]octan-1-yl)methyl)-3-fluorobicyclo[1.1.1]pentane-1-carboxamide]",7.37
9,"O=C(C1CC(F)(F)C1)N(CC12CCC(c3nnc(C4CC4)o3)(CC1)CC2)c1cccc(-c2nc(C3CC3)no2)c1 [Example 138, N-(3-(3-cyclopropyl-1,2,4-oxadiazol-5-yl)phenyl)-N-((4-(5-cyclopropyl-1,3,4-oxadiazol-2-yl)bicyclo[2.2.2]octan-1-yl)methyl)-3,3-difluorocyclobutane-1-carboxamide]",6.80
10,"O=C(C1CC(C(F)F)C1)N(CC12CCC(c3nnc(C4CC4)o3)(CC1)CC2)c1cccc(-c2nc(C3CC3)no2)c1 (stereo not drawn) [Example 139, N-(3-(3-cyclopropyl-1,2,4-oxadiazol-5-yl)phenyl)-N-((4-(5-cyclopropyl-1,3,4-oxadiazol-2-yl)bicyclo[2.2.2]octan-1-yl)methyl)-3-(difluoromethyl)cyclobutane-1-carboxamide]",6.42
11,"COc1ncc(C23CCC(CN(C(=O)C45CC(F)(C4)C5)c4cccc(-c5nc(C6CC6)no5)c4)(CC2)CO3)cn1 [Example 140, N-(3-(3-Cyclopropyl-1,2,4-oxadiazol-5-yl)phenyl)-3-fluoro-N-((1-(2-methoxypyrimidin-5-yl)-2-oxabicyclo[2.2.2]octan-4-yl)methyl)bicyclo[1.1.1]pentane-1-carboxamide]",6.24
12,"N#CC1(c2ccc(C34CCC(CN(C(=O)C5CC(C(F)F)C5)c5cccc(-c6nc(C7CC7)no6)c5)(CC3)CO4)cc2)CC1 (stereo not drawn) [Example 141, N-((1-(4-(1-Cyanocyclopropyl)phenyl)-2-oxabicyclo[2.2.2]octan-4-yl)methyl)-N-(3-(3-cyclopropyl-1,2,4-oxadiazol-5-yl)phenyl)-3-(difluoromethyl)cyclobutane-1-carboxamide]",6.19
13,"N#CC1(c2ccc(C34CCC(CN(C(=O)C5CC(F)(F)C5)c5cccc(-c6nc(C7CC7)no6)c5)(CC3)CO4)cc2)CC1 [Example 142, N-((1-(4-(1-cyanocyclopropyl)phenyl)-2-oxabicyclo[2.2.2]octan-4-yl)methyl)-N-(3-(3-cyclopropyl-1,2,4-oxadiazol-5-yl)phenyl)-3,3-difluorocyclobutuane-1-carboxamide]",6.23
14,"N#CC1(c2ccc(C34CCC(CN(C(=O)C56CC(F)(C5)C6)c5cccc(-c6nc(C7CC7)no6)c5)(CC3)CO4)cc2)CC1 [Example 143, N-((1-(4-(1-cyanocyclopropyl)phenyl)-2-oxabicyclo[2.2.2]octan-4-yl)methyl)-N-(3-(3-cyclopropyl-1,2,4-oxadiazol-5-yl)phenyl)-3-fluorobicyclo[1.1.1]pentane-1-carboxamide]",7.05
15,"N#CC1(c2ccc(C34CCC(CN(C(=O)C5CC(C(F)F)C5)c5cccc(-c6nnc(C7CC7)o6)c5)(CC3)CO4)cc2)CC1 (stereo not drawn) [Example 144, N-((1-(4-(1-Cyanocyclopropyl)phenyl)-2-oxabicyclo[2.2.2]octan-4-yl)methyl)-N-(3-(5-cyclopropyl-1,3,4-oxadiazol-2-yl)phenyl)-3-(difluoromethyl)cyclobutane-1-carboxamide]",5.67
16,"N#CC1(c2ccc(C34CCC(CN(C(=O)C5CC(F)(F)C5)c5cccc(-c6nc(C7CC7)no6)c5)(CC3)CO4)cc2)CC1 [Example 145, N-((1-(4-(1-cyanocyclopropyl)phenyl)-2-oxabicyclo[2.2.2]octan-4-yl)methyl)-N-(3-(3-cyclopropyl-1,2,4-oxadiazol-5-yl)phenyl)-3,3-difluorocyclobutane-1-carboxamide]",5.36
17,"N#CC1(c2ccc(C34CCC(CN(C(=O)C56CC(F)(C5)C6)c5cccc(-c6nc(C7CC7)no6)c5)(CC3)CO4)cc2)CC1 [Example 146, N-((1-(4-(1-cyanocyclopropyl)phenyl)-2-oxabicyclo[2.2.2]octan-4-yl)methyl)-N-(3-(3-cyclopropyl-1,2,4-oxadiazol-5-yl)phenyl)-3-fluorobicyclo[1.1.1]pentane-1-carboxamide]",6.48
18,"COC1(c2nc(-c3cccc(N(CC45CCC(c6nc(C7CC7)no6)(CC4)CC5)C(=O)C45CC(F)(C4)C5)c3)no2)CC1 [Example 147, N-((4-(3-cyclopropyl-1,2,4-oxadiazol-5-yl)bicyclo[2.2.2]octan-1-yl)methyl)-3-fluoro-N-(3-(5-(1-methoxycyclopropyl)-1,2,4-oxadiazol-3-yl)phenyl)bicyclo[1.1.1]pentane-1-carboxamide]",7.10
19,"COc1nccc(C23CCC(CN(C(=O)C45CC(F)(C4)C5)c4cccc(-c5nc(C6CC6)no5)c4)(CC2)CC3)n1 [Example 148, N-(3-(3-cyclopropyl-1,2,4-oxadiazol-5-yl)phenyl)-3-fluoro-N-((4-(2-methoxypyrimidin-4-yl)bicyclo[2.2.2]octan-1-yl)methyl)bicyclo[1.1.1]pentane-1-carboxamide]",6.16
20,"O=C(N(CC12CCC(c3nc(C4CC4)no3)(CC1)CC2)c1cccc(-c2ccn(C3COC3)n2)c1)C12CC(F)(C1)C2 [Example 149, N-((4-(3-cyclopropyl-1,2,4-oxadiazol-5-yl)bicyclo[2.2.2]octan-1-yl)methyl)-3-fluoro-N-(3-(1-(oxetan-3-yl)-1H-pyrazol-3-yl)phenyl)bicyclo[1.1.1]pentane-1-carboxamide]",6.95
21,"O=C(N(CC12CCC(c3nc(C4CC4)no3)(CC1)CC2)c1cccc(-c2cnn(C3COC3)c2)c1)C12CC(F)(C1)C2 [Example 150, N-((4-(3-cyclopropyl-1,2,4-oxadiazol-5-yl)bicyclo[2.2.2]octan-1-yl)methyl)-3-fluoro-N-(3-(1-(oxetan-3-yl)-1H-pyrazol-4-yl)phenyl)bicyclo[1.1.1]pentane-1-carboxamide]",7.06
22,"Cc1csc(-c2cccc(N(CC34CCC(c5nc(C6CC6)no5)(CC3)CC4)C(=O)C34CC(F)(C3)C4)c2)n1 [Example 151, N-((4-(3-cyclopropyl-1,2,4-oxadiazol-5-yl)bicyclo[2.2.2]octan-1-yl)methyl)-3-fluoro-N-(3-(4-methylthiazol-2-yl)phenyl)bicyclo[1.1.1]pentane-1-carboxamide]",7.10
23,"O=C(N(CC12CCC(c3nc(C4CC4)no3)(CC1)CC2)c1cccc(-c2cnn(-c3cccnc3)c2)c1)C12CC(F)(C1)C2 [Example 152, N-((4-(3-cyclopropyl-1,2,4-oxadiazol-5-yl)bicyclo[2.2.2]octan-1-yl)methyl)-3-fluoro-N-(3-(1-(pyridin-3-yl)-1H-pyrazol-4-yl)phenyl)bicyclo[1.1.1]pentane-1-carboxamide]",6.79
24,"CC(C)(C)c1noc(C23CCC(CN(C(=O)C45CC(F)(C4)C5)c4cccc(-c5nnc(C6CC6)o5)c4)(CC2)CC3)n1 [Example 153, N-((4-(3-(tert-butyl)-1,2,4-oxadiazol-5-yl)bicyclo[2.2.2]octan-1-yl)methyl)-N-(3-(5-cyclopropyl-1,3,4-oxadiazol-2-yl)phenyl)-3-fluorobicyclo[1.1.1]pentane-1-carboxamide]",7.14

# Reference: patent publication US11254663B2 (BRISTOL-MYERS SQUIBB COMPANY, priority 2019, dated 2022)
